Source: US20240423982A1 (Eli Lilly and Company, priority 2023, published 2024)

Tested on: new-onset type-1 diabetes patients
Test: randomized placebo-controlled study of baricitinib 4 mg per day for 48 weeks in new-onset type 1 diabetes
Assay type: in vivo, human
Experimental: Participants: Eligibility criteria included age between 10 and 30 years, diagnosis of type 1 diabetes according to ADA criteria within 100 days of starting study drug, presence of at least one islet autoantibody and either random C-peptide>0.3 pmol/mL or C-peptide>0.2 pmol/mL per during a 2 h MMTT. Exclusion criteria included treatment with other immunomodulatory agents, and clinically significant comorbidities including cytopenias, known malignancy, history of thrombosis or LDL cholesterol>155 mg/dL. All participants received standard diabetes management with a target HbA1c of less than 7% in adults and less than 7.5% in participants less than 18 years of age, in accordance with current ADA recommendations.
Primary, secondary, and exploratory outcomes: The primary outcome was the average C-peptide during a 2 h MMTT at 48 weeks, calculated as the area under the trapezoidal curve divided by 120 minutes. Secondary outcomes included HbA1c, total daily insulin use, CGM measures from the ambulatory glucose profile. Participants were requested to wear either a Freestyle Libre2 or Dexcom G6 CGM for 14 days at baseline, 12, 24, 48, 72 and 96 weeks. Exploratory mechanistic outcomes included the assessment of basal and cytokine-stimulated phosphorylation of STAT proteins in fresh whole blood, and the frequency of T-cell subsets in PBMC. Samples for these were collected at baseline and 24 weeks.

[1] = weeks 12 and 24, but not week 48, versus placebo

SMILES: CCS(=O)(=O)N1CC(CC#N)(n2cc(-c3ncnc4[nH]ccc34)cn2)C1 [baricitinib, {1-(ethylsulfonyl)-3-[4-(7H-pyrrolo[2,3-d]pyrimidin-4-yl)-1H-pyrazol-1-yl]azetidin-3-yl}acetonitrile]
- tolerability (4 mg per day orally, 48 weeks): well tolerated
- glucose coefficient of variation (CGM) (12, 24 and 48 weeks, versus placebo): improved significantly
- HbA1c (48 weeks, mean±SEM, placebo 7.4±0.27, p=0.216): 7.0%
- insulin use compared to placebo (FIG. 1B, over treatment): significantly lower insulin use
- lipid profile, liver function or renal function versus placebo (baseline, 12, 24, or 48 weeks): no significant differences
- time below range <70 mg/dl (<3.9 mmol/L) (CGM) (between groups): no significant differences
- median number of AEs (placebo 3): 2
- SAEs attributed to study medication (total of seven SAEs recorded in both groups): none of which were attributed to study medication
- median C-peptide during 2 h MMTT (week 48, 4 mg per day orally, placebo 0.45 (0.13-0.63), p=0.001): 0.65 (0.31-0.82) pmol/mL/min
- daily insulin dose (week 48, median, placebo 0.48 (0.37-0.64), p=0.004): 0.39 (0.22-0.57) U/kg/day
- C-peptide decline compared to baseline (week 48, placebo 29.5%, p=0.008): 5.5%
- HbA1c difference between groups (weeks 12, 24 or 48): did not differ significantly
- daily insulin requirement versus baseline (weeks 12 and 24): decreased below baseline
- median C-peptide compared to placebo (weeks 12 and 24): significantly higher
- percent time above 180 mg/dl (10 mmol/l) (CGM) [1]: significantly lower
- percent time between 70 and 180 mg/dL (3.9 and 10 mmol/L) (CGM) [1]: higher
